# Test results from patent US4105766A, “4,5-Dihydro-5-oxopyrazolo[1,5-a]quinazoline-3-carboxylic acid derivatives” (Sterling Drug Inc., priority 1977, dated 1978).
# How the values were obtained:
# [1] = tested on: passive cutaneous anaphylaxis; experiment: passive cutaneous anaphylaxis test in rats (anti-allergy); type: in vivo; details: for inhibition in vivo at 100 mg/kg / ED50: Rattus norvegicus, po; for inhibition in vivo at 100 mg/kg / % Inhibition (passive cutaneous anaphylaxis) / R (ratio, passive cutaneous anaphylaxis) / ED50: rats; for inhibition in vivo at 100 mg/kg / % Inhibition (passive cutaneous anaphylaxis): standard dose of 100 mg./kg. (p.o.); for R (ratio, passive cutaneous anaphylaxis): R 1.0 to 2.0 inactive, 2.0 to 4.0 weakly active, 4.0 to 8.0 moderately active, >8.0 strongly active; for ED50: passive cutaneous anaphylaxis, read-out: Average Effective Dose50 (AED50)
# Source text: (1) The inhibition of carrageenin-induced foot edema test essentially described by Winter et al., Proc. Soc. Exp. Biol. and Med. 111, 544 (1962) as modified by Van Arman et al., J. Pharmacol. Exptl. Therap. 150, 328 (1965) and (2) a modification of the inhibition of adjuvant-induced arthritis test described by Pierson, J. Chronic Diseases 16, 863 (1963) and Glenn et al., Am. J. Vet. Res. 26, 1180 (1965), which were used to establish the anti-inflammatory activities of the compounds; and the passive cutaneous anaphylaxis test described by Mielens et al., Int. Arch. Allergy Appl. Immunol. 47, 633-649 (1974) which was used to establish the anti-allergy activity of the compounds.
# Results are expressed either in terms of % Inhibition at a standard dose of 100 mg./kg. (p.o.), as an Average Effective Dose50 (AED50), or as a ratio, R, where: [formula]
# Trypanosoma brucei = experiment: trypanosomicidal test in infected mice; type: in vivo, Trypanosoma brucei (in mice)
# Experimental: Trypanosomicidal activity of the compounds of the invention was determined in a test procedure in which albino female mice (Taconic Farms) weighing 20± 2 g. were intraperitoneally injected 3 days prior to initial medication with 0.2 ml. of an inoculum containing 500 Trypanosoma brucei organisms in 0.85% sterile saline. Blood for infecting purposes was obtained via cardiac puncture of a donor mouse previously determined to have a high parasitemia. Test medications to groups of five mice were started 3 days after infection at a time when the animals had begun to develop a rising blood parasitemia. […] Groups of 10 non-medicated infected control mice and five animals medicated with the reference compound LAMPIT® (tetrahydro-3-methyl-4-[(5-nitrofurfurylidene)amino]-2H-1,4-thiazine-1,1-dioxide) were included in each screening test. The test system is based on the survival of animals medicated with the test compound, and those mice alive at the end of 28 days post-infection were recorded as cured. (Non-medicated infected control mice rarely succumb later than 5 to 6 days post-innoculation with T. brucei). A compound was considered active if at least two of five animals survived until the termination of a 28 day post-infection holding period.
# (§1) Results obtained in amoebacidal and trypanosomicidal tests on the compounds of the invention against E. criceti and T. brucei, respectively, are given in the table below. Results are expressed as a ratio: Number of Animals Cleared/Total Test Animals.
# Entamoeba criceti = experiment: amoebacidal test in naturally infected hamsters; type: in vivo, Entamoeba criceti (in hamsters)
# Experimental: Anti-parasitic activity of the compounds was shown by the following test procedures. Amoebacidal activity was shown in a test in which 100 or more female hamsters (Sprague-Dawley) weighing between 90 and 130 g. were individually weighed and sorted into groups of five animals each averaging either 100 ± 10 g. or 120 ± 10g. The test compounds (at least 200 mg.) and a reference standard, N,N'-(phenylenedimethylene)-bis[α,α-dichloro-N-(2-ethoxyethyl)acetamide] (FALMONOX®), were dissolved or suspended in 10 percent gelatin. The test compounds and the reference standard were administered to the naturally infected hamsters intragastrically via syringe in equally subdivided doses of 0.5 ml. […] On the fourth day each of the test animals and the five hamsters receiving the reference drug, as well as non-medicated infected control animals, were killed and a portion of the mucus from the wall of the cecum was mixed in a drop of 0.85% sodium chloride. The preparation was examined under low power (100 ×) of a compound microscope for the presence of motile trophozoites of Entamoeba criceti, and when a preparation was determined to be free from trophozoites, a second specimen was taken from another part of the cecum of the same animal and thoroughly examined before the animal was declared cleared of amoebas. […] Results were recorded as a fraction: number of hamsters cleared/number of hamsters treated.
# as §1
# [2] = tested on: carrageenin-induced foot edema; experiment: carrageenin-edema test (CE), inhibition of carrageenin-induced foot edema in rats; type: in vivo; details: Rattus norvegicus, read-out: % Inhibition C.E.; for inhibition in vivo at 324 µmol/kg: dose .324 mmole/kg.; for inhibition in vivo at 80 µmol/kg: dose .08 mmole/kg.
# Experimental: (1) The inhibition of carrageenin-induced foot edema test essentially described by Winter et al., Proc. Soc. […] Therap. […] J. Vet. […] Arch. Allergy Appl. Immunol.
# Here, and elsewhere in other tables which follow, compounds are identified by the Example number above where their preparations are recorded. For purposes of comparison, data are also given for the reference compound 4,5-dihydro-5-oxopyrazolo[1,5-a]quinazoline-3-carboxylic acid disclosed by Wright, ibid., identified here and elsewhere in the tables which follow as "Ref.".
# [3] = tested on: adjuvant-induced arthritis; experiment: adjuvant arthritis test (AA), inhibition of adjuvant-induced arthritis in rats; type: in vivo; details: Rattus norvegicus; for inhibition in vivo at 80 µmol/kg: dose .08 mmole/kg.; for inhibition in vivo at 324 µmol/kg: dose .324 mmole/kg.; for inhibition in vivo at 20 µmol/kg: dose .02 mmole/kg.
# [4] = dose 200 mg./kg. p.o. 2×/day × 4
structure (smiles),measurement,setting,value
CCOC(=O)c1cnn2c1[nH]c(=O)c1cc(C)ccc12 [Example 1A],inhibition in vivo at 100 mg/kg,[1],63%
CCOC(=O)c1cnn2c1[nH]c(=O)c1ccc(C)cc12 [Example 1B],% Inhibition (passive cutaneous anaphylaxis),[1],Inac.
CCOC(=O)c1cnn2c1[nH]c(=O)c1cc(Cl)ccc12 [Example 1C],inhibition in vivo at 100 mg/kg,[1],48%
CCOC(=O)c1cnn2c1[nH]c(=O)c1cc(F)ccc12 [Example 1E],% Inhibition (passive cutaneous anaphylaxis),[1],Inac.
"CCOC(=O)c1cnn2c3ccccc3c(=O)n(C)c12 [Example 2, ethyl 4-methyl-4,5-dihydro-5-oxopyrazolo[1,5-a]quinazoline-3-carboxylate]","No. Cleared/No. Tested, Tryp.","Trypanosoma brucei; dose 50 mg./kg. p.o., i.p.",0/5
same,"No. Cleared/No. Tested, Tryp.","Trypanosoma brucei; dose 200 mg./kg. p.o., i.p.",2/5
CCOC(=O)c1cnn2c3ccc(C)cc3c(=O)n(C)c12 [Example 2F],inhibition in vivo at 100 mg/kg,[1],6%
same,% Inhibition (passive cutaneous anaphylaxis),[1],Inac.
same,"No. Cleared/No. Tested, Amoeba",Entamoeba criceti; dose 25 mg./kg.,0/5
same,"No. Cleared/No. Tested, Amoeba",Entamoeba criceti; dose 100 mg./kg.,5/5
CCOC(=O)c1cnn2c3cc(C)ccc3c(=O)n(C)c12 [Example 2G],inhibition in vivo at 100 mg/kg,[1],46%
CCOC(=O)c1cnn2c3ccc(Cl)cc3c(=O)n(C)c12 [Example 2H],inhibition in vivo at 100 mg/kg,[1],32%
same,"No. Cleared/No. Tested, Amoeba",Entamoeba criceti; dose 100 mg./kg.,2/4
CCOC(=O)c1cnn2c3ccc(F)cc3c(=O)n(C)c12 [Example 2K],"R (ratio, passive cutaneous anaphylaxis)",[1],3.0
"CCOC(=O)c1cnn2c3ccc([N+](=O)[O-])cc3c(=O)n(C)c12 [Example 4, ethyl 4-methyl-7-nitro-4,5-dihydro-5-oxopyrazolo[1,5-a]quinazoline-3-carboxylate]","No. Cleared/No. Tested, Amoeba",Entamoeba criceti; dose 100 mg./kg.,2/4
"Cn1c(=O)c2ccccc2n2ncc(C(=O)O)c12 [Example 7, 4-methyl-4,5-dihydro-5-oxopyrazolo[1,5-a]quinazoline-3-carboxylic acid]",inhibition in vivo at 100 mg/kg,[1],68%
same,inhibition in vivo at 324 µmol/kg,[2],11%
same,"No. Cleared/No. Tested, Tryp.",Trypanosoma brucei; dose 100 mg./kg. p.o. 2×/day × 4,0/5
same,"No. Cleared/No. Tested, Tryp.",Trypanosoma brucei; [4],5/5
same,inhibition in vivo at 80 µmol/kg,[3],16%
same,inhibition in vivo at 324 µmol/kg,[3],39%
CCn1c(=O)c2ccccc2n2ncc(C(=O)O)c12 [Example 7A],ED50,[1],12 mg/kg
same,inhibition in vivo at 100 mg/kg,[1],81%
same,inhibition in vivo at 324 µmol/kg,[2],33%
same,inhibition in vivo at 80 µmol/kg,[3],27%
"C=CCn1c(=O)c2ccccc2n2ncc(C(=O)O)c12 [Example 7B, 4-(2-propenyl)-4,5-dihydro-5-oxopyrazolo[1,5-a]quinazoline-3-carboxylic acid]",inhibition in vivo at 100 mg/kg,[1],40%
same,inhibition in vivo at 80 µmol/kg,[2],38%
same,inhibition in vivo at 324 µmol/kg,[2],73%
same,inhibition in vivo at 20 µmol/kg,[3],18%
same,inhibition in vivo at 80 µmol/kg,[3],34%
same,inhibition in vivo at 324 µmol/kg,[3],84%
O=C(O)c1cnn2c3ccccc3c(=O)n(CC3CC3)c12 [Example 7C],"R (ratio, passive cutaneous anaphylaxis)",[1],6.5
same,inhibition in vivo at 80 µmol/kg,[2],25%
same,inhibition in vivo at 324 µmol/kg,[2],33%
same,inhibition in vivo at 324 µmol/kg,[3],74%
C=C(C)Cn1c(=O)c2ccccc2n2ncc(C(=O)O)c12 [Example 7D],"R (ratio, passive cutaneous anaphylaxis)",[1],4.6
same,inhibition in vivo at 80 µmol/kg,[2],15%
same,inhibition in vivo at 324 µmol/kg,[2],24%
same,inhibition in vivo at 324 µmol/kg,[3],43%
CC(C)=CCn1c(=O)c2ccccc2n2ncc(C(=O)O)c12 [Example 7E],"R (ratio, passive cutaneous anaphylaxis)",[1],3.8
same,inhibition in vivo at 80 µmol/kg,[2],3%
same,inhibition in vivo at 324 µmol/kg,[2],4%
same,inhibition in vivo at 324 µmol/kg,[3],34%
Cc1ccc2c(c1)c(=O)[nH]c1c(C(=O)O)cnn12 [Example 7F],inhibition in vivo at 100 mg/kg,[1],65%
Cc1ccc2c(=O)[nH]c3c(C(=O)O)cnn3c2c1 [Example 7G],ED50,[1],~15 mg/kg
Cc1ccc2c(c1)c(=O)n(C)c1c(C(=O)O)cnn21 [Example 7H],ED50,[1],34 mg/kg
same,inhibition in vivo at 100 mg/kg,[1],73%
same,"No. Cleared/No. Tested, Tryp.",Trypanosoma brucei; [4],10/10
same,"No. Cleared/No. Tested, Tryp.","Trypanosoma brucei; dose 200 mg./kg. p.o., i.p.",4/5
O=C(O)c1cnn2c1[nH]c(=O)c1cc(Cl)ccc12 [Example 7J],ED50,[1],5 to 10 mg/kg
same,inhibition in vivo at 100 mg/kg,[1],92%
Cn1c(=O)c2cc(Cl)ccc2n2ncc(C(=O)O)c12 [Example 7K],ED50,[1],9 mg/kg
same,"No. Cleared/No. Tested, Tryp.","Trypanosoma brucei; dose 200 mg./kg. p.o., i.p.",2/4
O=C(O)c1cnn2c1[nH]c(=O)c1ccc(Cl)cc12 [Example 7L],inhibition in vivo at 100 mg/kg,[1],74%
same,"No. Cleared/No. Tested, Amoeba",Entamoeba criceti; dose 100 mg./kg.,2/5
Cn1c(=O)c2ccc(Cl)cc2n2ncc(C(=O)O)c12 [Example 7M],inhibition in vivo at 100 mg/kg,[1],56%
same,"No. Cleared/No. Tested, Tryp.","Trypanosoma brucei; dose 200 mg./kg. p.o., i.p.",5/5
Cn1c(=O)c2cc(F)ccc2n2ncc(C(=O)O)c12 [Example 7P],% Inhibition (passive cutaneous anaphylaxis),[1],Inac.
same,inhibition in vivo at 324 µmol/kg,[2],0%
same,"No. Cleared/No. Tested, Tryp.","Trypanosoma brucei; dose 200 mg./kg. p.o., i.p.",3/5
same,Amoeba (activity in words),Entamoeba criceti; dose not given,Inac. (inactive when zero or one of the five hamsters were trophozoite free)
C=CCn1c(=O)c2cc(F)ccc2n2ncc(C(=O)O)c12 [Example 7Q],inhibition in vivo at 80 µmol/kg,[2],0%
same,inhibition in vivo at 324 µmol/kg,[2],4%
same,inhibition in vivo at 324 µmol/kg,[3],72%
Cn1c(=O)c2cc(Br)ccc2n2ncc(C(=O)O)c12 [Example 7R],inhibition in vivo at 100 mg/kg,[1],63%
Cn1c(=O)c2cc([N+](=O)[O-])ccc2n2ncc(C(=O)O)c12 [Example 7S],ED50,[1],37 mg/kg
Cn1c(=O)c2cc(NC(=S)Nc3ccccc3)ccc2n2ncc(C(=O)O)c12 [Example 7T],Tryp. (activity in words),Trypanosoma brucei; dose not given,Inac. (inactive if none of the animals survived to the end of the test)
same,"No. Cleared/No. Tested, Amoeba",Entamoeba criceti; dose 50 mg./kg.,0/3
same,"No. Cleared/No. Tested, Amoeba",Entamoeba criceti; dose 100 mg./kg.,3/3
"C=CCn1c(=O)c2ccccc2n2ncc(C(=O)O)c12 [Example 8, sodium 4-(2-propenyl)-4,5-dihydro-5-oxopyrazolo[1,5-a]quinazoline-3-carboxylate]",inhibition in vivo at 90 µmol/kg,[2]; dose .09 mmole/kg.,20%
same,inhibition in vivo at 360 µmol/kg,[2]; dose .36 mmole/kg.,31%
same,inhibition in vivo at 20 µmol/kg,[3],29%
same,inhibition in vivo at 80 µmol/kg,[3],47%
same,inhibition in vivo at 324 µmol/kg,[3],80%
"Cn1c(=O)c2ccccc2n2ncc(C(=O)OCOC(=O)C(C)(C)C)c12 [Example 9, pivaloyloxymethyl 4-methyl-4,5-dihydro-5-oxopyrazolo[1,5-a]quinazoline-3-carboxylate]","R (ratio, passive cutaneous anaphylaxis)",[1],6.7
"Cn1c(=O)c2cc(N)ccc2n2ncc(C(=O)O)c12 [Example 10, 7-amino-4-methyl-4,5-dihydro-5-oxopyrazolo[1,5-a]quinazoline-3-carboxylic acid]","No. Cleared/No. Tested, Amoeba",Entamoeba criceti; dose 50 mg./kg.,0/5
same,"No. Cleared/No. Tested, Amoeba",Entamoeba criceti; dose 100 mg./kg.,5/5
"O=C(O)c1cnn2c1[nH]c(=O)c1ccccc12 [Ref., 4,5-dihydro-5-oxopyrazolo[1,5-a]quinazoline-3-carboxylic acid]",ED50,[1],2 to 15 mg/kg
same,inhibition in vivo at 100 mg/kg,[1],62%
same,anti-allergic activity (in words),"[1]; rat, in vivo",possesses anti-allergic activity
same,inhibition in vivo at 80 µmol/kg,[2],0%
same,inhibition in vivo at 324 µmol/kg,[2],7%
same,inhibition in vivo at 20 µmol/kg,[3],26%
same,inhibition in vivo at 80 µmol/kg,[3],31%
same,inhibition in vivo at 324 µmol/kg,[3],10%
